Experimental data from US20120129858A1, “COMPOUNDS, COMPOSITIONS AND METHODS COMPRISING PYRIDAZINE SULFONAMIDE DERIVATIVES” (INSTITUTE FOR ONEWORLD HEALTH, priority 2009, published 2012).
pIC50: −log10 of the molar value.

Legend:
CFTR = target: T1, CFTR (Homo sapiens, UniProt P13569); experiment: T84 assay (FLIPR membrane potential dye, forskolin/IBMX-stimulated CFTR channel activity); type: cell-based; conditions: average of at least 2 runs unless annotated n = 1
T1 construct: host or cells: T84 human colonic cells
Experimental: Human colonic T84 cells are acquired from the European Collection of Cell Cultures (ECACC) and are grown in standard culture conditions as described by the supplier. On the day before assay 25,000 T84 cells per well are plated into standard black walled, clear bottom 384-well assay plates in standard growth medium consisting of DMEM:F12 with 10% FBS and incubated overnight. On the day of the assay the plates are washed using a standard assay buffer (HBSS with 10 mM Hepes) and incubated for 15 minutes in serum free cell culture medium before the addition of a commercially available membrane potential sensitive fluorescent dye (FLIPR Red membrane potential dye, Molecular Devices Corporation). T84 cells are incubated with the FLIPR Red membrane potential dye for 45 minutes in the presence and absence of test compound before being transferred to a commercially available fluorescence imaging plate reader (FLIPR384, Molecular Devices Corporation). Fluorescence levels are monitored continuously every second for 150 seconds; after an initial 10 second baseline, CFTR channel activity is stimulated through the addition of 10 μM forskolin in the presence of 100 μM of the phosphodiesterase inhibitor iso-butyl-methylxanthine (IBMX). Addition of the forskolin leads to the activation of intracellular adenylyl cylase 1, elevating cAMP levels and results in the phosphorylation and opening of CFTR anion channels. CFTR channel opening causes chloride ion efflux and subsequent depolarization of the cells, which is measured by an increase in fluorescence. CFTR inhibitor compounds prevent cell depolarization and the associated increase in fluorescence.
Unless otherwise indicated, the IC50 values are reported as an average of at least 2 runs. Where only 1 run is used, it is indicated by the annotation “n=1.”

[1] = tested on: cholera toxin (CTX) induced net fluid secretion in small intestine loops; set-up: species or system mice (CD1 strain); conditions: mouse, in vivo

T1 sequence (P13569 whole entry): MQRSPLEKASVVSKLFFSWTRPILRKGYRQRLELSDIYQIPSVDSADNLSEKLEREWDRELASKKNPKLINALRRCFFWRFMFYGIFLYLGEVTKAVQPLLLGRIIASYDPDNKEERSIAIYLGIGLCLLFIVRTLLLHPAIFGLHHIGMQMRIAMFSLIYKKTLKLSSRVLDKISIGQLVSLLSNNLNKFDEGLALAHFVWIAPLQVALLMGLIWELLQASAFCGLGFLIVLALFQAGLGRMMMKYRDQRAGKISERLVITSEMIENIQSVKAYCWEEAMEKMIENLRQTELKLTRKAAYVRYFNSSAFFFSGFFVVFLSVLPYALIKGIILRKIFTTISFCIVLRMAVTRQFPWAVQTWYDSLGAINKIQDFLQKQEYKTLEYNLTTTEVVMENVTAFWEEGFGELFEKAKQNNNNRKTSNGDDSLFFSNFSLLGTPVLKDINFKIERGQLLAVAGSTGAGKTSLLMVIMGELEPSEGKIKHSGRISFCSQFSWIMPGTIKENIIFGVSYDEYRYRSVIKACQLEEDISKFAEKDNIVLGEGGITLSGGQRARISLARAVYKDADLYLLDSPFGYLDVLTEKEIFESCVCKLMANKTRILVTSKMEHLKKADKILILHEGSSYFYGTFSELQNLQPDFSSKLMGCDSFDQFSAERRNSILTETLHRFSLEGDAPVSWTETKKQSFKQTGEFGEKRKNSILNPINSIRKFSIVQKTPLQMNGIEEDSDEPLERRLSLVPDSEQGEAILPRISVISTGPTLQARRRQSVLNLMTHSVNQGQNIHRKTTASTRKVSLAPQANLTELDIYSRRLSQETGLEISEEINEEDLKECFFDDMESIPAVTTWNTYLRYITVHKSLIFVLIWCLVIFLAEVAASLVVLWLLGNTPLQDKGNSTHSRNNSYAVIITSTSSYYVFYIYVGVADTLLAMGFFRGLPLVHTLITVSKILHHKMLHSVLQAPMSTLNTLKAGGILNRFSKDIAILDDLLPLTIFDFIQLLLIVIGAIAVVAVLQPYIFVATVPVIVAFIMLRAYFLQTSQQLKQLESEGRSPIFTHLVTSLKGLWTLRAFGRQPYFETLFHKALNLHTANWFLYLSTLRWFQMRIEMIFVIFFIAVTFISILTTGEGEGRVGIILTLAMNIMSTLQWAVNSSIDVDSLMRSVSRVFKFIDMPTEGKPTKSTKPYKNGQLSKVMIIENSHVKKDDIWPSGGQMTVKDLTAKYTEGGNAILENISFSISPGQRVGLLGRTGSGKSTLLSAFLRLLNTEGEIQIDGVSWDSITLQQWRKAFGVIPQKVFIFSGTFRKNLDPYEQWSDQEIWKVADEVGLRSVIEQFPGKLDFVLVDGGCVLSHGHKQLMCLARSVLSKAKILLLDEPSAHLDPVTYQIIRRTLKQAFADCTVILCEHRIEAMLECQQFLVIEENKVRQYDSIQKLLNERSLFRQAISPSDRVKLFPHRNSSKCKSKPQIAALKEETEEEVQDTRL

| SMILES | pIC50 (CFTR) | closed loop % inhibition [1] [%] |
| --- | --- | --- |
| CS(=O)(=O)Nc1cccc(-c2ccc(OCCc3ccc(Cl)cc3)nn2)c1 [Compound 1, N-(3-(6-(4-chlorophenethoxy)pyridazin-3-yl)phenyl)methanesulfonamide] | 5.01 | – |
| CCN(Cc1ccccc1)c1ccc(-c2cccc(NS(=O)(=O)C(F)(F)F)c2)nn1 [Compound 10, N-(3-(6-(benzyl(ethyl)amino)pyridazin-3-yl)phenyl)-1,1,1-trifluoromethanesulfonamide] | 5.10 | – |
| N#Cc1ccc(S(=O)(=O)Nc2cccc(-c3ccc(OCCc4ccc(Cl)cc4)nn3)c2)cc1 [Compound 3, N-(3-(6-(4-chlorophenethoxy)pyridazin-3-yl)phenyl)-4-cyanobenzenesulfonamide] | 4.77 | – |
| CCN(Cc1ccccc1)c1ccc(-c2cccc(NS(=O)(=O)c3ccc(C)cc3)c2)nn1 [Compound 8, N-(3-(6-(benzyl(ethyl)amino)pyridazin-3-yl)phenyl)-4-methylbenzenesulfonamide] | 7.30 | – |
| O=C(NS(=O)(=O)c1ccc(F)cc1F)c1cccc(-c2ccc(OCCc3ccc(Cl)cc3)nn2)c1 [Compound 21, 3-(6-(4-chlorophenethoxy)pyridazin-3-yl)-N-(2,4-difluorophenylsulfonyl)benzamide] | 4.73 | – |
| CC(C)CS(=O)(=O)Nc1ccc(-c2ccc(OCCc3ccc(Cl)cc3)nn2)cc1 [Compound 24, N-(4-(6-(4-chlorophenethoxy)pyridazin-3-yl)phenyl)-2-methylpropane-1-sulfonamide] | 4.81 | – |
| O=S(=O)(Nc1cccc(-c2ccc(OCCc3ccc(Cl)cc3)nn2)c1)c1ccc(N2CCOCC2)nc1 [Compound 4, N-(3-(6-(4-chlorophenethoxy)pyridazin-3-yl)phenyl)-6-morpholinopyridine-3-sulfonamide] | 5.26 | – |
| Cc1ccc(S(=O)(=O)Nc2cccc(-c3ccc(NCc4ccccc4)nn3)c2)cc1 [Compound 16, N-(3-(6-(benzylamino)pyridazin-3-yl)phenyl)-4-methylbenzenesulfonamide] | 5.65 | – |
| COc1ccc(S(=O)(=O)NC(=O)c2cccc(-c3ccc(OCCc4ccc(Cl)cc4)nn3)c2)cc1 [Compound 11, 3-(6-(4-chlorophenethoxy)pyridazin-3-yl)-N-(4-methoxyphenylsulfonyl)benzamide] | 4.94 | – |
| CC(=O)Nc1ccc(S(=O)(=O)Nc2cccc(-c3ccc(OCCc4ccc(Cl)cc4)nn3)c2)cc1 [Compound 5, N-(4-(N-(3-(6-(4-chlorophenethoxy)pyridazin-3-yl)phenyl)sulfamoyl)phenyl)acetamide] | 4.56 | – |
| Cc1ccc(S(=O)(=O)NC(=O)c2ccc(-c3ccc(OCCc4ccc(Cl)cc4)nn3)cc2)cc1 [Compound 23, 4-(6-(4-chlorophenethoxy)pyridazin-3-yl)-N-tosylbenzamide] | 5.52 | – |
| O=S(=O)(Nc1ccc(-c2ccc(OCCc3ccc(Cl)cc3)nn2)cc1)C(F)(F)F [Compound 22, N-(4-(6-(4-chlorophenethoxy)pyridazin-3-yl)phenyl)-1,1,1-trifluoromethanesulfonamide] | 5.55 | – |
| CC(C)(C)c1ccc(S(=O)(=O)Nc2cccc(-c3ccc(OCCc4ccc(Cl)cc4)nn3)c2)cc1 [Compound 18, 4-tert-butyl-N-(3-(6-(4-chlorophenethoxy)pyridazin-3-yl)phenyl)benzenesulfonamide] | 5.09 | – |
| CC(C)(C)c1ccc(S(=O)(=O)NC(=O)c2cccc(-c3ccc(OCCc4ccc(Cl)cc4)nn3)c2)cc1 [Compound 14, N-(4-tert-butylphenylsulfonyl)-3-(6-(4-chlorophenethoxy)pyridazin-3-yl)benzamide] | 4.70 | – |
| O=C(NS(=O)(=O)Cc1ccccc1)c1cccc(-c2ccc(OCCc3ccc(Cl)cc3)nn2)c1 [Compound 17, N-(benzylsulfonyl)-3-(6-(4-chlorophenethoxy)pyridazin-3-yl)benzamide] | 5.22 | – |
| CCS(=O)(=O)NC(=O)c1cccc(-c2ccc(OCCc3ccc(Cl)cc3)nn2)c1 [Compound 13, 3-(6-(4-chlorophenethoxy)pyridazin-3-yl)-N-(ethylsulfonyl)benzamide] | 4.73 | – |
| O=C(NS(=O)(=O)c1ccc(F)cc1)c1cccc(-c2ccc(OCCc3ccc(Cl)cc3)nn2)c1 [Compound 12, 3-(6-(4-chlorophenethoxy)pyridazin-3-yl)-N-(4-fluorophenylsulfonyl)benzamide] | 4.93 | – |
| O=C(NS(=O)(=O)c1ccc(F)c(F)c1)c1cccc(-c2ccc(OCCc3ccc(Cl)cc3)nn2)c1 [Compound 15, 3-(6-(4-chlorophenethoxy)pyridazin-3-yl)-N-(3,4-difluorophenylsulfonyl)benzamide] | 4.56 | – |
| CCN(Cc1ccccc1)c1ccc(-c2cccc(NS(=O)(=O)N(C)C)c2)nn1 [Compound 6, N-(3-(6-(benzyl(ethyl)amino)pyridazin-3-yl)phenyl)dimethylaminosulfonamide] | 5.85 | – |
| CCN(Cc1ccccc1)c1ccc(-c2cccc(NS(C)(=O)=O)c2)nn1 [Compound 7, N-(3-(6-(benzyl(ethyl)amino)pyridazin-3-yl)phenyl)methanesulfonamide] | 5.65 | – |
| CCN(Cc1ccccc1)c1ccc(-c2cccc(NS(=O)(=O)c3cccc(Br)c3)c2)nn1 [Compound 9, N-(3-(6-(benzyl(ethyl)amino)pyridazin-3-yl)phenyl)-3-bromobenzenesulfonamide] | 7.30 | – |
| O=S(=O)(Nc1cccc(-c2ccc(OCCc3ccc(Cl)cc3)nn2)c1)C(F)(F)F [Compound 2, N-(3-(6-(4-chlorophenethoxy)pyridazin-3-yl)phenyl)-1,1,1-trifluoromethanesulfonamide] | 5.24 | 98.2 |
| O=S(=O)(CC(F)(F)F)Nc1cccc(-c2ccc(OCCc3ccc(Cl)cc3)nn2)c1 [Compound 20, N-(3-(6-(4-chlorophenethoxy)pyridazin-3-yl)phenyl)-2,2,2-trifluoroethanesulfonamide] | 4.83 | – |
| CCN(Cc1ccccc1)c1ccc(-c2cccc(N3CCCS3(=O)=O)c2)nn1 [Compound 26, Benzyl-{6-[3-(1,1-dioxo-isothiazolidin-2-yl)-phenyl]-pyridazin-3-yl}-ethylamine] | 5.42 | – |
| O=C(NS(=O)(=O)c1ccc(F)c(F)c1)c1cccc(-c2ccc(OCCc3ccc(Cl)cc3)nn2)c1 [Compound 19, 3-(6-(4-chlorophenethoxy)pyridazin-3-yl)-N-(3,4-difluorophenylsulfonyl)benzamide] | 4.86 | – |
